{"source": "patent US12644100B2", "about": "“Methods for treating metabolic disorders by targeting ADCY5” (THE BROAD INSTITUTE, INC., priority 2019, dated 2026)", "test_system": "primary differentiating osteoblasts", "assay": "Osteoblast differentiation assay (ALP activity) in primary differentiating osteoblasts treated with etomoxir", "assay_type": "cell-based, human", "conditions": "100 μM etomoxir between day 2 and day 5 of differentiation", "experimental": "FIG. 9A-9E—3q21.1 haplotype affects lipid oxidation in adipocytes and osteoblasts. (9A) Osteoblast alkaline phosphatase (ALP) activity in primary differentiating osteoblasts treated with 100 μM etomoxir (carnitine palmitoyltransferase 1 antagonist) or negative control. Assays were performed in cells from 18 heterozygous individuals (haplotypes 1/2) and 23 homozygous individuals (haplotypes 1/1) and differentiating osteoblasts were treated between day 2 and day 5 of differentiation. (9B) Oxidation of [14C]palmitate (0.5 mM) to 14CO2 in primary differentiating osteoblasts treated with 100 μM etomoxir (carnitine palmitoyltransferase 1 antagonist) or negative control. […] Seahorse XF24 Flux analyzer was performed at each time point and contribution of ATP generation was calculated from glycolysis vs. oxidative phosphorylation. […] Isogenic lines were differentiated to osteoblasts after undergoing clonal expansion, and marker gene expression for osteoblast differentiation was measured by qPCR. […] Isogenic lines were differentiated to adipocytes after undergoing clonal expansion, and catecholamine-stimulated lipolysis was measured. […]\nCulture and differentiation of primary human AMSCs. […] Additionally, small quantities of the original liposuction material would be aliquoted into T-25 flasks at a 1:1 ratio of fat to medium as controls to check for contamination. […]"}
{"smiles": "CCOC(=O)[C@@]1(CCCCCCOc2ccc(Cl)cc2)CO1", "note": "[etomoxir]", "values": [{"measurement": "osteoblast differentiation (ALP activity)", "setting": "haplotype 1 homozygotes (n=23), p-value=0.005", "result": "dramatic reduction in osteoblast differentiation"}, {"measurement": "osteoblast differentiation (ALP activity)", "setting": "heterozygotes haplotypes 1/2 (n=18)", "result": "no effect"}]}
